Measurements taken from ChEMBL document CHEMBL1131505, “(+)-cis-N-ethyleneamino-N-normetazocine derivatives. Novel and selective sigma ligands with antagonist properties” (J Med Chem, 1998).
pKi: −log10 of the molar value.

Columns and labels:
[1] = biological target: Serotonin 2 (5-HT2) receptor; experiment: Inhibition of [3H]ketanserin binding to 5-hydroxytryptamine 2 receptor of guinea pig frontal cortex membranes; type: tissue-based, Cavia porcellus
D(2) dopamine receptor [2] = biological target: T1, D(2) dopamine receptor (Rattus norvegicus, UniProt P61169); experiment: Inhibition of [3H]spiroperidol binding to Dopamine receptor D2 of rat striatal membranes; type: cell membranes, Membrane
[3] = biological target: T2, Muscarinic acetylcholine receptor M2 (Rattus norvegicus, UniProt P10980); experiment: Inhibition of [3H]N-methylscopolamine binding to Muscarinic acetylcholine receptor M2 of rat heart membranes; type: cell membranes, Membrane
T2 sequence (P10980 whole entry): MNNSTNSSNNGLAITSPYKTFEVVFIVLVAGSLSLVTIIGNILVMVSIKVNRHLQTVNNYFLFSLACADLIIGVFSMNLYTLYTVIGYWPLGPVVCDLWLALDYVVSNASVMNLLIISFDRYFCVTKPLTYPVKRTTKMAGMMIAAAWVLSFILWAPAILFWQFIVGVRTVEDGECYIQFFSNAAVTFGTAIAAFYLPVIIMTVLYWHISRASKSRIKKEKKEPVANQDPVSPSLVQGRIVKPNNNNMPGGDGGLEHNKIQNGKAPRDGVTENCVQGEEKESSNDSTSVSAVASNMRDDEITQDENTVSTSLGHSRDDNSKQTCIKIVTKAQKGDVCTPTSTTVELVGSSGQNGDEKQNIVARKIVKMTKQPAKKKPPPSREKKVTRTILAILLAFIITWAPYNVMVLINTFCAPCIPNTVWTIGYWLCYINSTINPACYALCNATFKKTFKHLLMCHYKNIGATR

Opioid receptor [4] = biological target: T3, Opioid receptor (Rattus norvegicus, UniProt P33533+P34975+P33535); experiment: Inhibition of [3H]naloxone binding to Opioid receptors of rat brain membranes; type: cell membranes, Membrane
[5] = Compound was tested for its binding affinity towards PCP receptor in rat membranes in the presence of [3H]-(+)-SKF- 10,047; type: cell membranes
Sigma 2 receptor = experiment: Inhibition of [3H]DTG binding to sigma-2 sites of guinea pig brain membranes
D(2) dopamine receptor [6] = biological target: T1, D(2) dopamine receptor; experiment: Binding affinity towards Dopamine receptor D2 in the rat striatal membranes using [3H]spiroperidol; type: cell membranes, Striatum, Membrane
Opioid receptor [7] = biological target: T3, Opioid receptor; experiment: Compound was tested for its binding affinity towards Opioid receptors in rat membranes in the presence of [3H]naloxone; type: cell membranes

T1 sequence (P61169 whole entry): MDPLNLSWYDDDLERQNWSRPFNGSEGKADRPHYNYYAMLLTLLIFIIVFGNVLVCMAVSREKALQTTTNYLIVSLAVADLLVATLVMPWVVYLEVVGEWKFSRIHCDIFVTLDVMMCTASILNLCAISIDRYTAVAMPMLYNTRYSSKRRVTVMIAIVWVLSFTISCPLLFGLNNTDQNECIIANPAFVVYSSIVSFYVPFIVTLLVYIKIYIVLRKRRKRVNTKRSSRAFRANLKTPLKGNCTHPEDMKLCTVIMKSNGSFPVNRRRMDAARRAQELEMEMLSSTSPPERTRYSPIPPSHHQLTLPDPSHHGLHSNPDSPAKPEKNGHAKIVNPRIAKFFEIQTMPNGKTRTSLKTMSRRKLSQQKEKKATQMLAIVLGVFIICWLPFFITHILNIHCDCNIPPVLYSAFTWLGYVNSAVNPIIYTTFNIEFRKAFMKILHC

**Q.** What does the source list for `C[C@@H]1[C@@H]2Cc3ccc(O)cc3[C@]1(C)CCN2CCNC1CCCCC1`?
**A.** Ki [1]: > 10000 nM; pKi (D(2) dopamine receptor [2]): < 5.00; pKi [3]: < 5.00; Ki (Opioid receptor [4]): 1466 nM; pKi [5]: < 5.00; pKi (Sigma 2 receptor): 6.48

**Q.** With `C[C@@H]1[C@@H]2Cc3ccc(O)cc3[C@]1(C)CCN2CCN1CCCC1` as the molecule, how does the Ki [1] read?
**A.** Its Ki is > 10000 nM.

**Q.** And the pKi (D(2) dopamine receptor [2])?
**A.** Its pKi is < 5.00.

**Q.** And the pKi [3]?
**A.** The pKi was 5.71.

**Q.** And the Ki (Opioid receptor [4])?
**A.** The Ki was 3800 nM.

**Q.** And the pKi [5]?
**A.** The pKi was < 5.00.

**Q.** And the pKi (Sigma 2 receptor)?
**A.** The pKi was 6.59.

**Q.** Which Ki [1] does the source give for `C[C@@H]1[C@@H]2Cc3ccc(O)cc3[C@]1(C)CCN2CCN1CCCCC1` here?
**A.** Its Ki is > 10000 nM.

**Q.** And the pKi (D(2) dopamine receptor [6])?
**A.** The pKi was < 5.00.

**Q.** What about the pKi [3] of the same molecule?
**A.** The pKi was 5.11.

**Q.** What about the Ki (Opioid receptor [4]) of the same molecule?
**A.** Its Ki is 12000 nM.

**Q.** What about the pKi [5] of the same molecule?
**A.** Its pKi is < 5.00.

**Q.** What about the pKi (Sigma 2 receptor) of the same molecule?
**A.** The pKi was 6.94.

**Q.** For `C=CCN1CC[C@]2(C)c3cc(O)ccc3CC1[C@@H]2C` (single isomer, unassigned; (+)), which Ki [1] is on record?
**A.** The Ki was > 10000 nM.

**Q.** What about the pKi (D(2) dopamine receptor [2]) of the same molecule?
**A.** Its pKi is < 5.00.

**Q.** What about the pKi [3] of the same molecule?
**A.** Its pKi is < 5.00.

**Q.** And the Ki (Opioid receptor [7])?
**A.** The Ki was 1900 nM.

**Q.** What about the pKi [5] of the same molecule?
**A.** Its pKi is 6.35.

**Q.** Which results are given for `C[C@@H]1[C@@H]2Cc3ccc(O)cc3[C@]1(C)CCN2CCNc1ccccc1`?
**A.** Ki (Opioid receptor [4]): 79.8 nM; pKi (Sigma 2 receptor): 6.95

**Q.** For `C[C@@H]1[C@@H]2Cc3ccc(O)cc3[C@]1(C)CCN2CCNCc1ccccc1`, which Ki (Opioid receptor [7]) is on record?
**A.** The Ki was 366 nM.

**Q.** What about the pKi (Sigma 2 receptor) of the same molecule?
**A.** Its pKi is 6.73.

**Q.** With `C[C@@H]1[C@@H]2Cc3ccc(O)cc3[C@]1(C)CCN2CCN1CCOCC1` as the molecule, how does the Ki [1] read?
**A.** Its Ki is > 10000 nM.

**Q.** And the pKi (D(2) dopamine receptor [2])?
**A.** The pKi was < 5.00.

**Q.** And the pKi [3]?
**A.** Its pKi is 6.38.

**Q.** What about the Ki (Opioid receptor [4]) of the same molecule?
**A.** The Ki was 8168 nM.

**Q.** What about the pKi [5] of the same molecule?
**A.** The pKi was < 6.00.

**Q.** And the pKi (Sigma 2 receptor)?
**A.** The pKi was 6.52.

**Q.** Which Ki (Opioid receptor [4]) does the source give for `C[C@@H]1[C@@H]2Cc3ccc(O)cc3[C@]1(C)CCN2CCN(C)c1ccccc1` here?
**A.** The Ki was 28.8 nM.

**Q.** What about the pKi (Sigma 2 receptor) of the same molecule?
**A.** The pKi was 6.91.

**Q.** What does the source list for `CCN(CCN1CC[C@@]2(C)c3cc(O)ccc3C[C@H]1[C@H]2C)c1ccccc1`?
**A.** Ki (Opioid receptor [4]): 211 nM; pKi (Sigma 2 receptor): 6.82

**Q.** Which results are given for `C[C@@H]1[C@@H]2Cc3ccc(O)cc3[C@]1(C)CCN2CCN1CCCCCC1`?
**A.** Ki [1]: > 10000 nM; pKi (D(2) dopamine receptor [2]): < 5.00; pKi [3]: 5.74; Ki (Opioid receptor [4]): 9128 nM; pKi [5]: 7.30; pKi (Sigma 2 receptor): 6.82

**Q.** For `C[C@@H]1[C@@H]2Cc3ccc(O)cc3[C@]1(C)CCN2CCN(C)C`, which Ki [1] is on record?
**A.** The Ki was > 10000 nM.

**Q.** What about the pKi (D(2) dopamine receptor [2]) of the same molecule?
**A.** The pKi was < 5.00.

**Q.** What about the pKi [3] of the same molecule?
**A.** Its pKi is < 5.00.

**Q.** And the Ki (Opioid receptor [4])?
**A.** Its Ki is 2888 nM.

**Q.** And the pKi [5]?
**A.** Its pKi is 5.47.

**Q.** What about the pKi (Sigma 2 receptor) of the same molecule?
**A.** The pKi was 6.46.

**Q.** For `CCN(CC)CCN1CC[C@@]2(C)c3cc(O)ccc3C[C@H]1[C@H]2C`, which Ki [1] is on record?
**A.** The Ki was > 10000 nM.

**Q.** What about the pKi (D(2) dopamine receptor [2]) of the same molecule?
**A.** Its pKi is < 5.00.

**Q.** And the pKi [3]?
**A.** Its pKi is 5.70.

**Q.** And the Ki (Opioid receptor [4])?
**A.** The Ki was 12290 nM.

**Q.** What about the pKi [5] of the same molecule?
**A.** Its pKi is 5.12.

**Q.** What about the pKi (Sigma 2 receptor) of the same molecule?
**A.** Its pKi is 6.42.

**Q.** Which Ki (Opioid receptor [7]) does the source give for `CC(C)=CCN1CC[C@]2(C)c3cc(O)ccc3C[C@H]1[C@H]2C` (single isomer, unassigned) [(+)-PENTAZOCINE] here?
**A.** The Ki was 2370 nM.

**Q.** What about the pKi [5] of the same molecule?
**A.** The pKi was 5.36.
